Where two headings read alike, the source gives them in different places.
What was measured:
[1] = in vivo, iv; cited from earlier work
[2] = Electrochemistry: metal-centered redox potential (voltammetry); assay type: physicochemical; details: for E1/2 (H2O)M^IIIP/(H2O)M^IIP: 0.1M NaCl and 0.01 M HCl, errors ±3 mV
Method: The electrochemistry was done as previously described on CH Instruments 600 Voltammetric Analyzer. The metal-centered redox potentials of aquametalloporhyrins were measured in 0.1 M NaCl and 0.01 M HCl. […] Thus, their voltammograms were obtained in 0.1 M NaCl, 0.1 M 1-methylimidazole, 0.05 M phosphate buffer, pH 7.8. Scan rates were 0.1 V/s. The potentials were standardized against MnTE-2-PyP^5+ and are given in Table 1, in mV versus normal hydrogen electrode, NHE [42].

[3] = Precipitation of anionic porphyrins at acidic pH; assay type: physicochemical; details: pH 5.5, ~50% of carboxylate groups protonated
[4] = when carboxylates are protonated; cited from earlier work
[5] = cited from earlier work
[6] = Stability of metalloporphyrins to oxidative degradation (bleaching), spectrophotometric; details: for remaining fraction of metalloporphyrin: after 6 hours, in the presence of cyclophosphamide, pH 7.4, 10 μM porphyrin; for remaining fraction of metalloporphyrin / stability to oxidative degradation / bleaching (in words): aerobic; for stability to oxidative degradation / bleaching (in words): pH 7.4, ascorbic acid
[7] = cited from earlier work; remark: listed apart in the source
[8] = pH 7.4; for remaining fraction of metalloporphyrin: buffer, 6 h
[9] = 0.1 M NaCl, 0.1 M 1-methylimidazole, 0.05 M phosphate buffer, pH 7.8, scan rate 0.1 V/s
[10] = footnote b: ref 42, pH 7.8, 0.05 M phosphate buffer, 0.1M NaCl, 0.5 mM porphyrin
[11] = footnote a: estimated from existing potentials of difluoro- and dichloro analogues [42] and those obtained herein

O=P1(N(CCCl)CCCl)NCCCO1 (stereo not drawn) [CP, cyclophosphamide]
CP hydroxylated to 4-OHCP in plasma [1]: around 2.4%
peak CP levels in plasma [1]: 27.58 μg/mL μM

C=CC1=C(C)c2cc3[n-]c(cc4[n-]c(cc5nc(cc1n2)C(C)=C5C=C)c(C)c4CCC(=O)O)c(CCC(=O)O)c3C.[Cl-].[Fe+3] [FePP-IX^−, Fe(III) protoporphyrin IX]
E1/2 (1-MeIm)2M^IIIP/(1-MeIm)2M^IIP [2, 9]: 112 mV vs NHE
precipitation at pH 5.5 [3]: precipitate out of the solutions
precipitation under acidic conditions [4]: precipitate under acidic conditions
pKa of carboxylate groups [5]: ~5
remaining fraction of metalloporphyrin ([6]; 2 mM ascorbic acid): 71%
stability to oxidative degradation / bleaching (in words) [6]: very resistant to bleaching

C[n+]1ccccc1-c1c2nc(c(-c3cccc[n+]3C)c3ccc([n-]3)c(-c3cccc[n+]3C)c3nc(c(-c4cccc[n+]4C)c4ccc1[n-]4)C=C3)C=C2.[Fe+3] [FeTM-2-PyP^5+, Fe(III) tetrakis(N-methylpyridinium-2-yl)porphyrin]
E1/2 (1-MeIm)2M^IIIP/(1-MeIm)2M^IIP [7, 10]: +432^b mV vs NHE
E1/2 (H2O)M^IIIP/(H2O)M^IIP [7, 10]: +355^b mV vs NHE
E1/2 (OH)M^IIIP/(H2O)M^IIP [7, 10]: +212^b mV vs NHE
change of absorbance at 417.5 nm (porphyrin degradation) ([6]; 9 μM porphyrin, 2 mM ascorbic acid, +/−50 μM H2O2, +/−50 mM mannitol, PBS pH 7.4, 25° C., data not shown): decreased slowly
remaining fraction of metalloporphyrin ([6]; 2 mM ascorbic acid): 41%

C[n+]1ccccc1-c1c2nc(c(-c3cccc[n+]3C)c3ccc([n-]3)c(-c3cccc[n+]3C)c3nc(c(-c4cccc[n+]4C)c4ccc1[n-]4)C=C3)C=C2.[Mn+3] [MnTM-2-PyP^5+, Mn(III) tetrakis(N-methylpyridinium-2-yl)porphyrin]
E1/2 (OH)M^IIIP/(H2O)M^IIP [7, 10]: +128^b mV vs NHE
remaining fraction of metalloporphyrin ([6]; 2 mM ascorbic acid): 91%

C[n+]1cccc(-c2c3nc(c(-c4ccc[n+](C)c4)c4ccc([n-]4)c(-c4ccc[n+](C)c4)c4nc(c(-c5ccc[n+](C)c5)c5ccc2[n-]5)C=C4)C=C3)c1.[Mn+3] [MnTM-3-PyP^5+, Mn(III) tetrakis(N-methylpyridinium-3-yl)porphyrin]
E1/2 (OH)M^IIIP/(H2O)M^IIP ([7]; footnote c: ref 62, pH 11 where only 33% of (OH)MnTM-3-PyP^4+ exists): +42^c mV vs NHE
remaining fraction of metalloporphyrin ([6]; 2 mM ascorbic acid): 94%

Fe(III) meso tetrakis(2,6-dichloro-3-sulfonatophenyl)porphyrin [FeT(2,6-Cl2-3-SO3P)P^3−]
E1/2 (H2O)M^IIIP/(H2O)M^IIP ([2]; scan rate 0.1 V/s): +144^ mV vs NHE
remaining fraction of metalloporphyrin [8]: 23%
stability to oxidative degradation / bleaching (in words) [8]: least stable
E1/2 (1-MeIm)2M^IIIP/(1-MeIm)2M^IIP [7, 10]: +134^b mV vs NHE
E1/2 (OH)M^IIIP/(H2O)M^IIP [7, 10]: +94^b mV vs NHE

Fe(III) meso tetrakis(2,6-difluoro-3-sulfonatophenyl)porphyrin [FeT(2,6-F2-3-SO3P)P^3−]
E1/2 (H2O)M^IIIP/(H2O)M^IIP ([2]; scan rate 0.1 V/s): +124^ mV vs NHE
E1/2 (1-MeIm)2M^IIIP/(1-MeIm)2M^IIP [2, 11]: +114^a mV vs NHE
E1/2 (OH)M^IIIP/(H2O)M^IIP [2, 11]: +74^a mV vs NHE
remaining fraction of metalloporphyrin [8]: 19%
stability to oxidative degradation / bleaching (in words) [8]: least stable
4-OHCP produced (pH 5.5): 46.11 µM
cyclophosphamide hydroxylated relative to 10 μM porphyrin (pH 5.5): ~5 fold
4-OHCP formed (pH 7.4): 15.62 µM

Fe(III) meso tetrakis(4-carboxylatophenyl)porphyrin [FeTBAP^3−]
E1/2 (1-MeIm)2M^IIIP/(1-MeIm)2M^IIP [2, 9]: +22 ^ mV vs NHE
precipitation at pH 5.5 [3]: precipitate out of the solutions
precipitation under acidic conditions [4]: precipitate under acidic conditions
pKa of carboxylate groups [5]: ~5
remaining fraction of metalloporphyrin ([6]; 2 mM ascorbic acid): 24%
stability to oxidative degradation / bleaching (in words) [6]: more prone to destruction

Source: patent US8759324B2 (priority 2006, dated 2014)
